{"source": "patent US20170064953A1", "about": "“HERBICIDAL COMPOSITIONS CONTAINING 4-AMINO-3-CHLORO-6-(4-CHLORO-2-FLUORO-3-METHOXYPHENYL) PYRIDINE-2-CARBOXYLIC ACID OR A DERIVATIVE THEREOF, A TRIAZOLOPYRIMIDINE SULFONAMIDE HERBICIDE OR A DERIVATIVE THEREOF, AND GLYPHOSATE OR A DERIVATIVE THEREOF” (Dow AgroSciences LLC, priority 2015, published 2017)", "experiment_in_all_cases": "Field trial, postemergence herbicidal activity, foliar applied, visual rating", "type_in_all_cases": "in vivo", "key": {"[1]": {"tested_on": "Euphorbia heterophylla (wild poinsettia, EPHHL)", "conditions": "960 g ai/ha", "description": "(§1) Treatments consisted of the methyl ester of 4-amino-3-chloro-6-(4-chloro-2-fluoro-3-methoxyphenyl)pyridine-2-carboxylic acid (Cmpd 1) and diclosulam in combination as GF-3220. […] Glyphosate dimethylammonium salt was applied as various commercial formulations containing 480 grams acid equivalent per liter (g ae/L).\n(§2) Field trials were conducted under standard field conditions. Plot sizes varied from 3-4 meters (m) wide by 5-10 m long. Treatments were applied with small plot backpack sprayers, using pressurized carbon dioxide (CO2) as propellant. Pressure varied from 30-50 pounds per square inch (PSI), with spray tips typically of a Flat Fan type applying water diluent at 100-150 liters per hectare (L/ha). Boom sizes varied from 3-4 m in width. Weed sizes varied, but all treatments were applied as post-emergence treatments to weeds from 2 leaf to 2 tiller growth stages varying from 2-15 inches in height. No additional adjuvant was mixed with the treatments applied in the field.\n(§3) The weed spectrum included, but was not limited to, Commelina benghalensis (hairy wandering Jew, COMBE), Echinochloa crus-galli (barnyardgrass, ECHCG), Euphorbia heterophylla (wild poinsettia, EPHHL), Conyza bonariensis (hairy fleabane, ERIBO), Conyza canadensis (horseweed, ERICA), Conyza sumatrensis (Guernsey fleabane, ERISU) and Ipomoea grandifolia (Corda-de-viola, IAQGR).\n(§4) The values reported are percent (%) control visually rated. The predicted percent (%) weed control was determined using Colby's equation."}, "[2]": {"tested_on": "Conyza canadensis (horseweed, ERICA)", "conditions": "1200 g ai/ha", "description": "as §1, §2, §3, §4"}, "[3]": {"tested_on": "Conyza bonariensis (hairy fleabane, ERIBO)", "conditions": "960 g ai/ha", "description": "as §1, §2, §3, §4"}, "[4]": {"tested_on": "Conyza sumatrensis (Guernsey fleabane, ERISU)", "conditions": "1200 g ai/ha", "description": "as §1, §2, §3, §4"}, "[5]": {"tested_on": "Echinochloa crus-galli (barnyardgrass, ECHCG)", "conditions": "1200 g ai/ha", "description": "as §1, §2, §3, §4"}, "[6]": {"tested_on": "Commelina benghalensis (hairy wandering Jew, COMBE)", "conditions": "35DAA, 960 g ai/ha", "description": "as §1, §2, §3, §4"}, "[7]": {"tested_on": "Ipomoea grandifolia (Corda-de-viola, IAQGR)", "conditions": "960 g ai/ha", "description": "as §1, §2, §3, §4"}}, "note": "“And” between values parts separate entries of the source, which are not always exact repeats. Equal values may be shown once. Where a name gives a salt, the structure may show the parent alone."}
{"smiles": "O=C(O)CNCP(=O)(O)O", "note": "[Glyphosate DMA salt, N-(phosphonomethyl)glycine]", "values": [{"measurement": "Mean % weed control", "setting": "[1]; 7DAA", "result": 38.8, "unit": "%"}, {"measurement": "Mean % weed control", "setting": "[1]; 14DAA", "result": 52.5, "unit": "%"}, {"measurement": "Mean % weed control", "setting": "[1]; 28DAA", "result": 18.8, "unit": "%"}, {"measurement": "Mean % weed control", "setting": "[1]; 35DAA", "result": 7.5, "unit": "%"}, {"measurement": "Mean % weed control", "setting": "[2]; 30DAA", "result": 28.8, "unit": "%"}, {"measurement": "Mean % weed control", "setting": "[2]; 32DAA", "result": 32.5, "unit": "%"}, {"measurement": "Mean % weed control", "setting": "[2]; 46DAA", "result": 25.0, "unit": "%"}, {"measurement": "Mean % weed control", "setting": "[2]; 47DAA", "result": 28.8, "unit": "%"}, {"measurement": "Mean % weed control", "setting": "[2]; 62DAA", "result": 20.0, "unit": "%"}, {"measurement": "Mean % weed control", "setting": "[3]; 9DAA", "result": "11.7% and 10.0%"}, {"measurement": "Mean % weed control", "setting": "[3]; 12DAA", "result": 43.3, "unit": "%"}, {"measurement": "Mean % weed control", "setting": "[3]; 14DAA", "result": "40.0% and 36.7% and 23.3%"}, {"measurement": "Mean % weed control", "setting": "[3]; 15DAA", "result": 48.3, "unit": "%"}, {"measurement": "Mean % weed control", "setting": "[3]; 23DAA", "result": 31.7, "unit": "%"}, {"measurement": "Mean % weed control", "setting": "[3]; 35DAA", "result": 25.0, "unit": "%"}, {"measurement": "Mean % weed control", "setting": "[3]; 40DAA", "result": 46.7, "unit": "%"}, {"measurement": "Mean % weed control", "setting": "[3]; 54DAA", "result": 23.3, "unit": "%"}, {"measurement": "Mean % weed control", "setting": "[3]; 67DAA", "result": 20.0, "unit": "%"}, {"measurement": "Mean % weed control", "setting": "[4]; 19DAA", "result": 19.0, "unit": "%"}, {"measurement": "Mean % weed control", "setting": "[4]; 29DAA", "result": 17.0, "unit": "%"}, {"measurement": "Mean % weed control", "setting": "[4]; 46DAA", "result": 15.7, "unit": "%"}, {"measurement": "Mean % weed control", "setting": "[5]; 18DAA", "result": 16.7, "unit": "%"}, {"measurement": "Mean % weed control", "setting": "[5]; 38DAA", "result": 16.7, "unit": "%"}, {"measurement": "Mean % weed control", "setting": "[6]", "result": 62.0, "unit": "%"}, {"measurement": "Mean % weed control", "setting": "[7]; 14DAA", "result": 40.0, "unit": "%"}, {"measurement": "Mean % weed control", "setting": "[7]; 19DAA", "result": 43.8, "unit": "%"}, {"measurement": "Mean % weed control", "setting": "[7]; 28DAA", "result": 45.0, "unit": "%"}, {"measurement": "Mean % weed control", "setting": "[7]; 35DAA", "result": 53.8, "unit": "%"}, {"measurement": "Mean % weed control", "setting": "[7]; 42DAA", "result": 48.8, "unit": "%"}]}
